One may read the IC50 as the concentration needed to halve the response being measured. High values mean weaker potency in that assay, low ones greater potency in that assay.

Series [1] concerns the target T1, interaction between Supt4h and NGN (subunit of Supt5h) (Homo sapiens, UniProt P63272).
T1 construct: expressed in transfected cells
The series is described as follows: split Gaussia luciferase complementation assay (M2-8 cells). In kind it is cell-based. Particulars: for IC50: M2-8 cells, 24 hr treatment. The protocol:
1. Slit Gaussia Luciferase Complementation Assay […]
i pNBR-X1-Supt4-Gluc1 and pNEBR-X1-NGN-Guc2
The HA-Supt4hand Flag-NGN fragments are amplified by PR using the plasmid pHA-Supt4h-YC and pFlag-NGN-YN and sub-cloned individually into pcDNA3.1-Gluc1 and pcDNA3.1-GIuc2 (described in “A highly sensitive protein-protein interaction assay based on Gausssia Luciferase” published at Nat Methods. 2006 December; 3(12):977-9.Epub 2006 Nov. 12). Then HA-Supt4h-Gluc1 and Flag-NGN-Gluc2 are amplified by PCR and inserted to pNEBR-X1-Hygro (New England BioLabs), which contain RheoSwitch responsive element under the control of RheoSwitch ligand. […]
ii: pNEBR-X1-Supt4h-G1-NGN-G2
PCR products containing the sequence from 5XRE to polyA in pNEBR-X1-NGN-G2 are inserted to pNEBR-X1-Supt4h-G1 at Pcil site to generate Supt4h-G1 and NGN-G2 bidirectional under their own RheoSwitch responsive element and polyA in the same plasmid. […]
b. Stable Cloned Cell Line i: 293-R1 is a cloned cell which is engineered to constitutively express RSL1 receptor/activator by transfecting HEK 293 cells with pNEBR-R1 plasmid (New England BioLabs) and selected with Blasticidin. […]
ii: M2-8 is a cloned 293-R cell which can inducibly express pNEBR-X1-Supt4h-G1-NGN-G2 by addition of RSL1. Two point mutations (M431 and M1101) are introduced to the GL1 and GL2 for better stability according to “A high-throughput cell-based Gaussia luciferase reporter assay for identifying modulators of fibulin-3 secretion” published on J Biomol Screen. 2013 July; 18(6):647-58. The cell line is selected by Hygromycin. […]
c. Cell Culture and Transfection Condition
All the HEK-293 cells and derivative cell clones are maintained in DMEM containing 10% FBS plus corresponding antibiotics (250 μg/ml hygromycin B, 10 μg/ml blasticidin or both) at 37° C., 5% CO2. d. Bioluminescence Assay in Cell Lysates
For stable cell M2-8, the cells are plated into 96 well white plate directly. 24 hours later, RheoSwitch ligand together with/without test compound is added to the cells for induction/drug treatment. After 24 hr, the cells are washed with PBS and the plate was put in −20° C. freezer for overnight. After taking out the plate from freezer, lysis buffer (30 mM Tris-HCl, pH 8.0, 5 mM NaCl, 0.1% Triton X-100) with 10 μg/ml native coelenterazine (Nanolight Technology) is immediately added to the cells. The cells are lysed at room temperature for one hour in dark. After shaking for about 1 min, the signal intensities (integrated 100 ms) from the plate were read on Tecan Infinite M200 or M1000.
The split gaussia luciferase complementation assay measures the interaction between Sup4h and NGN. NGN is the subunit of Supt5h that binds to Supt4h. […] Therefore, administration of HD143 results in decreased production of mutant proteins encoded by genes that include mutant nucleotide repeats.

In a further series the test system is mutant HTT protein. The series is described as follows: mutant HTT activity assay in induced pluripotent stem cells (Western blot). The format is cell-based, human. The settings on record: HD patient iPSC; for effect on mutant HTT protein level in iPSC derived from a Huntington Disease patient: one day treatment, Western blot. As for the experimental part:
3. Mutant HTT Activity Assay in Induced Pluripotent Stem Cells (iPSC)
Huntington disease patient iPSCs (ND36999 from Coriell Institute) were detached into single cells by Accutase (AT104 from Accutase) and plated on a 24-well plate coated with Matrigel (354277 from Corning). When the cells' confluency reaches about 70%, compounds are added to the cell culture medium StemMACS (130104368 from MiltenyiBiotec) and incubated with the cells for one day. Then the medium is removed and the cells are washed with PBS. After all liquid is removed, the plate is put in −80° C. for overnight. After taking out the plate from freezer, lysis buffer (30 mM Tris-HCl, pH 8.0, 5 mM NaCl, 0.1% Triton X-100) with complete proteinase inhibitor cocktail (5892791001 from Sigma-Aldrich) is immediately added to the cells. Cell samples are lysed on ice for 10 minutes. The supernatants from spinning (14 k rpm for 10 min) are collected. The protein concentrations are determined by BCA assay (Pierce, ThermoFisher). Equal amounts of protein are loaded onto 4-12% gel. After electrophoresis, the gels are transferred to nitrocellulose membranes by wet transfer at 35V for 16 hr. The protein level of mutant HTT, total HTT and tubulin are determined by immunoblotting with anti-poly Glutamine (MAB1574 from Millipore), anti-Huntingtin protein (MAB2166 from Millipore) and anti-alpha tubulin (AJ1034a from ABGENT). Blots are imaged on a Li-Cor Odyssey infrared imager. The bands intensities are determined by Li-Cor Odyssey software.
Using the protocol reported above, iPSCs were treated with HD143 at various doses for 24 hr. The cells were collected and lysed for protein quantification. Equal amounts of protein were applied on SDS-PAGE gel for Western Blotting. Mutant HTT protein was recognized by polyQ antibody (MAB1574 from Millipore) while wild type HTT protein was blotted by anti-Huntingtin antibody (MAB2166 from Millipore). Both proteins were scanned and quantified by Li-Cor Odyssey and normalized by tubulin.
In general terms: In western blotting, separated proteins are transferred to a membrane and probed.

Series [2] has as its system Gmr-Htt97Q Drosophila HD model (mutant Htt). The series is described as follows: eye morphology (rough eye) analysis in Drosophila HD model. In kind it is in vivo, Drosophila melanogaster. Particulars: Gmr-Htt97Q/+ flies, 10 or 100 μM in media. As for the experimental part: The Drosophila melanogaster (fruit fly) HD models used in this set of experiments carry the coding sequence of human Httexon1 with 97 CAG repeats to mimic mutant Httof Huntington's disease (HD). The Gmr::Htt97Q fly, expressing mutant Htt primarily in the neurons of Drosophila compound eyes, has a severe degeneration of photoreceptor neurons and the phenotypic trait ‘rough eye’. All of the fly stocks and genetics crosses were maintained at 25° C. on standard cornmeal yeast agar media.
2. Eye Morphology (Rough Eye) Analysis
15 adult male flies (Gmr-Htt97Q/Gmr-Htt97Q or Gmr/Gmr) were crossed with 15 virgin female flies W1118(+/+) in a vial containing standard yeast agar media with testing compound (+)-HD143 in a concentration of 10 μM or 100 μM. Parent-flies were first removed from vials at day 7, followed by a collection of newly hatched flies for ‘rough eye’ analysis. The morphology of compound eyes was captured using a Leica DMR upright microscope equipped with a digital camera (CooISNAP 5.0, Photometrics). […]
FIG. 4A. The morphology of compound eye was analyzed in fruit flies treated with or without (+)-HD143. […] To quantify the appearance of “rough eye” in Gmr-Htt97Q/+ treated with 10 and 100 μM of (+)-HD143, ten flies were randomly picked from each group and the number of flies with “rough eye” phenotype were determined under microscope. […]

Series [3] can be described thus: brain to plasma ratio after oral dose. In kind it is in vivo. The settings on record: at 1 hour following a 5 mg/kg oral dose in rats.
In series [4] the test system is mutant HTT in lymphoblastoid cells GM14044. The series is described as follows: HD lymphoblastoid cell assay to assess mutant HTT reduction. The format is cell-based, human. Particulars: 72 hours. As for the experimental part: 3. HD Lymphoblastoid Cell Assay to Assess Mutant HTT Reduction
Lymphoblastoid cells GM14044, which are derived from Juvenile HD patient with around 250 CAG repeats in the mutant HTT allele, are used for lymphoblastoid cell assays. Lymphoblastoid cells are cultured as suspension cells. Right before the compound treatments, 5×10^5 cells/well are seeded into 24 well plate in 1.5 ml RPMI culture medium plus 10% fetal bovine serum. Compounds in serial dilutions are added into the well for the indicated final concentration. Cells are maintained in 37° C., 5% CO2 incubator for 72 hours
b. Compound Effect in Reducing mHTT (IC50)
The rest of the cell/medium mixture is removed from culture plate into a 1.5 ml microcentrifuge tube, then centrifuged at 2500 rpm for 2 minutes to remove the culture medium. Cell pallets are washed with 1×PBS, then stored at −80° C. until ready for Western blot analysis. Western blot analysis is performed as described above. The intensity of HTT from untreated cells is set as 100% and the IC50 of the compound is defined as the compound concentration at which the HTT protein was reduced to 50%.

For `Brc1ccc2[nH]c3c(c2c1)CCC[C@H]3NCc1ccccc1` [(R)-(+)-HD143, (R)-(+)-N-benzyl-6-bromo-2,3,4,9-tetrahydro-1H-carbazol-1-amine], the IC50 in series [1] is 15 nM. In addition, in series [1] (ratio of IC50 values, split Gaussia luciferase assay), the “fold more potent than racemic HD143” value is given as 2 fold. Besides, the “effect on mutant HTT protein level in iPSC derived from a Huntington Disease patient” value (from here on “effect on mutant HTT protein level”) with mutant HTT protein is recorded as “significantly reduced mutant HTT protein level”. For the same compound, the results for the “effect on neuron degeneration phenotypes (rough eye) of mutant Htt in Drosophila HD models” value in series [2] and in series [2] (listed as (+)-HD143) were “alleviates neuron degeneration phenotypes” and “Alleviates Neuron Degeneration Phenotypes”, respectively.
For `Brc1ccc2[nH]c3c(c2c1)CCCC3NCc1ccccc1` (racemic) [racemic HD143, N-benzyl-6-bromo-2,3,4,9-tetrahydro-1H-carbazol-1-amine], the IC50 in series [1] came to 30 nM; in series [4], 90 nM. Also, in series [1] (split Gaussia luciferase complementation assay), the “effect on Supt4h/NGN interaction” value was “interrupts the interaction between Sup4h and NGN”. Further, the “Dose to reduce mutant HTT in HD iPSC” value in the series with mutant HTT protein (24 hr) is “>=60 nm”. Moreover, the “effect on mutant HTT protein level” value in the series on mutant HTT protein was “decreases mutant HTT protein”. In addition, the “[Brain]/[Plasma]” value in series [3] is on record as 9 at 1 hour following a 5 mg/kg oral dose in rats.
In the case of `Brc1ccc2[nH]c3c(c2c1)CCC[C@@H]3NCc1ccccc1.Cl` [(S)-(−)-HD143, (S)-(−)-N-Benzyl-6-bromo-2,3,4,9-tetrahydro-1H-carbazol-1-amine Hydrochloride], in series [1], the IC50 was 900 nM. In addition, the “effect on mutant HTT protein level” value with mutant HTT protein is “showed no activity”.

The values are drawn from patent publication US10882821B1, “Enantiomeric compound for the reduction of the deleterious activity of extended nucleotide repeat containing genes” (THE BOARD OF TRUSTEES OF THE LELAND STANFORD JUNIOR …, priority 2017, dated 2021).
